Data on two molecules can be found in patent US20240091279A1, “COMBINATION THERAPY FOR INFLAMMATORY DISEASES” (University of lowa Research Foundation, priority 2022, published 2024).

For experiment [1], the system named is experimental autoimmune encephalomyelitis (EAE). The following applies: earlier published studies, cited from earlier work.
The conditions of experiment [2]: versus the original isoflavones; cited from earlier work.
In another experiment the test system is mouse model of MS. Kind of experiment: Mouse model of MS, Example I. In kind it is in vivo, mice. As to conditions: versus diet lacking phytoestrogen.

Read-outs that look alike come from different tables or passages of the source.

With Parabacteroides distasonis, the EAE disease entry in experiment [1] is reported as “sufficient to ameliorate EAE”.
For the molecule `Oc1ccc([C@H]2COc3cc(O)ccc3C2)cc1` [S-equol], the EAE disease entry is “sufficient to ameliorate EAE” in experiment [1] and “protect” in experiment [1] (listed as equol). Moreover, in experiment [2], the estrogenic activity entry was “significantly higher estrogenic activity”. The disease severity result in the experiment with mouse model of MS is “mimic some of the disease protective function”.
